From US9862792B2, “Diblock copolymers and polynucleotide complexes thereof for delivery into cells” (University of Washington, priority 2008, dated 2018)

Legend:
caspase 3/7 = assay: Caspase 3/7 activity assay in HeLas; assay type: cell-based, human; settings: HeLa, 30 minutes, 25 μM peptide or equivalent polymer; relative to no treatment
Procedure: Caspase 3/7 Activity Assay. Caspase 3/7 activation was measured using a commercially available assay kit. This assay utilizes a profluorescent caspase 3/7 substrate that once enzymatically cleaved becomes fluorescent allowing for determination of relative enzyme activity using a fluorescent plate reader. Here, HeLas were incubated for 30 minutes with 25 μM peptide (alone or as polymer conjugate) in addition to polymer alone in a quantity equivalent to the conjugate samples. Afterwards, a caspase 3/7 fluorigenic indicator was added directly to the culture media for each sample. Plates were shaken for 1 hour and then assayed using a fluorescent plate reader. Data were expressed as percent caspase activity relative to samples receiving no treatment.

[1] = test system: mitochondrial membrane potential in HeLas; assay: Flow cytometry of mitochondrial membrane potential (JC-1 dye); assay type: cell-based, human; settings: HeLa, 2 hours, 10 μM peptide or equivalent conjugate or polymer alone; versus no treatment
Procedure: Flow Cytometry Evaluation of Mitochondrial Membrane Potential. Loss of mitochondrial membrane potential, a known indicator for apoptosis, was assessed using the JC-1 dye. […] HeLas were incubated for 2 hours with 10 μM peptide or equivalent conjugate or polymer alone. JC-1 was added at a final concentration of 5 μg/mL and incubated for 15 minutes. Cells were washed 2 times with PBS, trypsinized, and resuspended in 0.5% BSA for flow cytometric analysis. Percent of cells displaying mitochondrial depolarization was quantified based on the number of green fluorescent cells that were negative for red fluorescence. Here, a significant loss of red fluorescent JC-1 aggregates and therefore a loss in mitochondrial polarization was detected following treatment with both the Antp-BH3 peptide and the polymer peptide conjugate (FIG. 21 A).

NH2-RQIKIWFQNRRMKWKKMGQVGRQLAIIGDDINRRYDSC-COOH (H-RQIKIWFQNRRMKWKKMGQVGRQLAIIGDDINRRYDSC-OH) [Antp-BH3]
caspase 3/7 activation (caspase 3/7): approximately 2.5 fold | increase in percent of cells exhibiting loss of mitochondrial polarity [1]: approximately 4 fold
